Measurements as given in publication PMC7402526, “An in vitro quantitative systems pharmacology approach for deconvolving mechanisms of drug-induced, multilineage cytopenias” (PLoS Computational Biology, 2020).

How the values were obtained:
Assay type in all cases: cell-based, human
[1] = test system: MK cells (MK-lin); assay: MLTA, MK: concentration-response and QSP model fit; conditions: Homo sapiens; for Emax: 144 h, parameter from QSP model fitting, read-out: Emax_drug_MK; for EC50: QSP model parameter, sheet EC50_parameters, MK
Procedure: (§1) A custom optimized cytokine cocktail was developed using commercially available cytokines (Peprotech, New Jersey) to facilitate simultaneous multi-lineage differentiation and self-renewal of freeze-thawed primary human bone marrow-derived CD34+ cells in SFEM II media (cells and media from StemCell Technologies, Vancouver). Cultures were carried out in ultra-low attachment 96-well plates (Corning, New York) with test article added on day 0 and cultured at 37°C, 85% relative humidity, and 5% CO2 for six days before interrogating drug impact via 17-parameter flow cytometry.
(§2) The flow cytometry panel used to define hematopoietic subsets was composed of CD34-PECy7, CD90-PECY5, CD38-AF488, CD371-PE, CD45Ra-BV421, CD14-BV605, CD42b-AF647, CD10-PEDazzle594, CD235a-PerCPCy5.5 (BioLegend, California), CD15-BUV395, CD41a-APCH7, CD71-BV786 (BD Biosciences, California), and DAPI for dead cell exclusion (ThermoFisher, California). In short, Day 6 cells were harvested, FcR-blocked (FcR binding inhibitor, ThermoFisher), surface-stained, then analyzed in a buffer containing TruCount Control Beads using a BD LSR Fortessa SORP fitted with a high-throughput sampler (BD Biosciences, California). Data was analyzed in Diva 6.0.2 and exported to CSV where after all cell data was transformed to cell per mL then normalized on a per-donor basis to untreated control wells to determine drug impact.
(§3) Donor material was collected and cultured as described above. The number of replicate donor samples per drug ranged from 2–7 and varied per drug (S1 Table). Drug treatment was added at time 0 and cells were maintained in culture for 6 days. Concentrations tested for each drug compound are contained in S1 Table. Concentrations were selected to span a range that is clinically useful. Following treatment, cell populations were measured using flow cytometry. We extracted cell counts from flow cytometry data, normalized to bead counts, and corrected for well volume.
(§4) Each well was normalized to the average of six vehicle control wells. For drugs that were tested across multiple runs of the assay, vehicle-normalized donor data were pooled, and we used the average of these pooled data for further modeling. Normalized data used as model inputs are included in S1 Table.
(§5) We implemented drug effects using an Emax model for the drug’s effect on each cell type. The 13 maximum effect parameters (EmaxT,C) are unitless and can vary between 0 and 2 and where a subscript, C, represents one of the previously described 13 cell types. We adapted a traditional Emax model using the equations below. We interpreted EmaxT values less than or equal to one as anti-proliferative, and EmaxT values greater than one as indicating a cell-killing mechanism in addition to anti-proliferation. The relationships for these effects are included in the model using the following equations. Eq 2 describes the drug anti-proliferative effect in the net proliferation rate for a given cell type. Eq 3 describes the cell-killing EmaxCK effect.
(§6) Towards the estimation of mechanistic parameters, we considered different formulations: (a) weighting the objective value to prioritize fitting dead cells and (b) using regularization methodology to encourage a parsimonious solution. We assessed the contributions of these formulations using mean-squared error and goodness of fit plots for drugs with known mechanisms. […] Further, we used L1 regularization to penalize parameters […] to help identify a parsimonious set of parameters to explain drug effects.

[2] = test system: hematopoietic stem cells (HSCs); assay: Multi-lineage toxicity assay (MLTA), HSCs: concentration-response and QSP model fit; conditions: Homo sapiens, Hematopoietic stem cell; for Emax: 144 h, parameter from QSP model fitting, read-out: Emax_drug_HSC; for EC50: QSP model parameter, sheet EC50_parameters, HSCs
Procedure: as §1, §2, §3, §4, §5, §6

[3] = test system: granulocytes (Gran-lin); assay: MLTA, Gran: concentration-response and QSP model fit; conditions: Homo sapiens; for Emax: 144 h, parameter from QSP model fitting, read-out: Emax_drug_Gran; for EC50: QSP model parameter, sheet EC50_parameters, Gran
Procedure: as §1, §2, §3, §4, §5, §6

[4] = test system: early erythroid cells (Eryth I); assay: MLTA, ErythI: concentration-response and QSP model fit; conditions: Homo sapiens; for Emax: 144 h, parameter from QSP model fitting, read-out: Emax_drug_ErythroidI; for EC50: QSP model parameter, sheet EC50_parameters, Erythroid I, read-out: EC50ErythroidI
Procedure: as §1, §2, §3, §4, §5, §6

[5] = test system: monocyte progenitors (monocyte prog); assay: MLTA, MonoP: concentration-response and QSP model fit; conditions: Homo sapiens, Monocyte; for Emax: 144 h, parameter from QSP model fitting, read-out: Emax_drug_MonoP; for EC50: QSP model parameter, sheet EC50_parameters, MonoP, read-out: EC50MonoP
Procedure: as §1, §2, §3, §4, §5, §6

[6] = test system: neutrophils (neutrophil-lin); assay: MLTA, Neut: concentration-response and QSP model fit; conditions: Homo sapiens, Neutrophil; for Emax: 144 h, parameter from QSP model fitting, read-out: Emax_drug_Neut; for EC50: QSP model parameter, sheet EC50_parameters, Neut
Procedure: as §1, §2, §3, §4, §5, §6

[7] = test system: multi-potent progenitors (MPPs); assay: MLTA, MPPs: concentration-response and QSP model fit; conditions: Homo sapiens; for Emax: 144 h, parameter from QSP model fitting, read-out: Emax_drug_MPP; for EC50: QSP model parameter, sheet EC50_parameters, MPPs
Procedure: as §1, §2, §3, §4, §5, §6

[8] = test system: late erythroid cells (Eryth II); assay: MLTA, ErythII: concentration-response and QSP model fit; conditions: Homo sapiens; for Emax: 144 h, parameter from QSP model fitting, read-out: Emax_drug_ErythroidII; for EC50: QSP model parameter, sheet EC50_parameters, Erythroid II, read-out: EC50ErythroidII
Procedure: as §1, §2, §3, §4, §5, §6

[9] = test system: monocytes (monocyte-lin); assay: MLTA, Mono: concentration-response and QSP model fit; conditions: Homo sapiens, Monocyte; for Emax: 144 h, parameter from QSP model fitting, read-out: Emax_drug_Mono; for EC50: QSP model parameter, sheet EC50_parameters, Mono
Procedure: as §1, §2, §3, §4, §5, §6

[10] = test system: B cells (B-lin); assay: MLTA, B-lin: concentration-response and QSP model fit; conditions: Homo sapiens, B-cell; for Emax: 144 h, parameter from QSP model fitting, read-out: Emax_drug_B; for EC50: QSP model parameter, sheet EC50_parameters, B
Procedure: as §1, §2, §3, §4, §5, §6

[11] = test system: lymphocyte progenitors (LymP); assay: MLTA, LymP: concentration-response and QSP model fit; conditions: Homo sapiens, Lymphocyte; for Emax: 144 h, parameter from QSP model fitting, read-out: Emax_drug_LymP; for EC50: QSP model parameter, sheet EC50_parameters, LymP
Procedure: as §1, §2, §3, §4, §5, §6

[12] = test system: granulocyte-macrophage progenitor (GMPs); assay: MLTA, GMPs: concentration-response and QSP model fit; conditions: Homo sapiens; QSP model parameter, sheet EC50_parameters; GMPs
Procedure: as §1, §2, §3, §4, §5, §6

[13] = test system: granulocyte progenitor (Gran-lin prog); assay: MLTA, GranP: concentration-response and QSP model fit; conditions: Homo sapiens; for Emax: 144 h, parameter from QSP model fitting, read-out: Emax_drug_GranP; for EC50: QSP model parameter, sheet EC50_parameters, GranP, read-out: EC50GranP
Procedure: as §1, §2, §3, §4, §5, §6

| EC50 [1] [nM] | EC50 [3] [nM] | EC50 [4] [nM] | EC50 [5] [nM] | EC50 [6] [nM] | EC50 [7] [nM] | EC50 [8] [nM] | EC50 [9] [nM] | EC50 [10] [nM] | SMILES | Emax [1] [%] | Emax [2] [%] | EC50 [2] [nM] | Emax [3] [%] | Emax [4] [%] | Emax [5] [%] | Emax [6] [%] | Emax [7] [%] | Emax [8] [%] | Emax [9] [%] | Emax [10] [%] | further results |
| --- | --- | --- | --- | --- | --- | --- | --- | --- | --- | --- | --- | --- | --- | --- | --- | --- | --- | --- | --- | --- | --- |
| 38.3 | 68.6 | 60.8 | 70.9 | 108 | 33.1 | 56.5 | 83.6 | 36.2 | CC(C)C[C@H](NC(=O)[C@H](Cc1ccccc1)NC(=O)c1cnccn1)B(O)O [Bortezomib] | 35.3 | 134 | 105 | 184 | 0.16 | 0.17 | 23.9 | 0.3 | 19.1 | 39 | 89.8 | Emax [11]: 0.16%; EC50 [11]: 112 nM; EC50 [12]: 40.6 nM; Emax [13]: 0.06%; EC50 [13]: 132 nM |
| 6.86 | 32.7 | 4.31 | 28.7 | 6.99 | 122 | 0.101 | 63.2 | 7.35 | Nc1ccn([C@@H]2O[C@H](CO)[C@@H](O)[C@@H]2O)c(=O)n1 [Cytarabine] | 42.8 | 61.3 | 17.4 | 0.0324 | 204 | 0.03 | 18.3 | 0.0181 | 2.92 | 20.1 | 83.9 | Emax [11]: 0.032%; EC50 [11]: 69.7 nM; EC50 [12]: 3.37 nM; Emax [13]: 104%; EC50 [13]: 6.96 nM |
| 763 | 3180 | 76.9 | 1050 | 2690 | 786 | 262 | 292 | 1000 | Nc1cccc2c1CN(C1CCC(=O)NC1=O)C2=O (stereo not drawn) [Lenalidomide] | 2.23e-06 | 1.33e-06 | 1130 | 9.94e-05 | 1.17e-05 | 3.83e-05 | 4.07e-06 | 4.52e-05 | 1.48e-06 | 3.68e-06 | 1.49e-05 | Emax [11]: 0.0004%; EC50 [11]: 26.7 nM; EC50 [12]: 3060 nM; Emax [13]: 5.98e-05%; EC50 [13]: 937 nM |
